Columns and labels:
Type in all cases: functional, cell-based
P388 = test: Cytotoxicity against mouse P388 cells after 48 hrs by MTT assay; details: P388, 48 h
A549 = test: Cytotoxicity against human A549 cells after 96 hrs by MTT assay; details: A549, 96 h
PANC-1 = test: Cytotoxicity against human PANC1 cells after 96 hrs by MTT assay; details: PANC-1, 96 h

Question: Which results are given for `CSC1=CC(=O)C(Br)=C[C@]12CCNC1=C2c2nccc3cn(C)c(c23)C1=O` [DISCORHABDIN S]?
Answer: IC50 (P388): 3080 nM; IC50 (A549): > 5000 nM; IC50 (PANC-1): 2600 nM

Question: Which results are given for `CSC1=CC(=O)C(Br)=C[C@]12C=CNC1=C2c2nccc3cn(C)c(c23)C1=O` [DISCORHABDIN T]?
Answer: IC50 (P388): > 5000 nM; IC50 (A549): > 5000 nM; IC50 (PANC-1): 700 nM

Question: Which results are given for `CSC1=CC(=O)C(Br)=C[C@]12C=CNC1=C2C2=NCCc3cn(C)c(c32)C1=O` [DISCORHABDIN U]?
Answer: IC50 (P388): 170 nM; IC50 (A549): 170 nM; IC50 (PANC-1): 69 nM
